Measurements as given in PubChem BioAssay (NCI).
Converted amounts (≈) assume the structure as drawn.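 Interpolation was linear, between the two tested concentrations surrounding the appropriate level; five concentrations were tested over 48 hours in 96-well plates. Here, GI50 denotes the concentration required for 50% inhibition of growth. TGI: total growth inhibition.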

How the values were obtained:
Assay in all cases: NCI anticancer screen, dose series, 48 h
[1] = test system: U251 CNS
[2] = test system: SK-MEL-28 melanoma
[3] = test system: SF-268 CNS
[4] = test system: EKVX NSCLC
[5] = test system: SR leukemia
[6] = test system: OVCAR-5 ovarian
[7] = test system: TK-10 renal
[8] = test system: MDA-MB-231 breast
[9] = test system: UO-31 renal
[10] = test system: HS 578T breast
[11] = test system: COLO 205 colon
[12] = test system: KM12 colon
[13] = test system: HCT-15 colon
[14] = test system: SK-MEL-2 melanoma
[15] = test system: RPMI-8226 leukemia
[16] = test system: SNB-75 CNS
[17] = test system: HCT-116 colon
[18] = test system: CAKI-1 renal
[19] = test system: UACC-62 melanoma
[20] = test system: K-562 leukemia
[21] = test system: T-47D breast
[22] = test system: SNB-19 CNS
[23] = test system: HOP-92 NSCLC
[24] = test system: NCI-H522 lung
[25] = test system: 786-0 renal
[26] = test system: A498 renal
[27] = test system: SK-MEL-5 melanoma
[28] = test system: SF-295 CNS
[29] = test system: CCRF-CEM leukemia
[30] = test system: A549 NSCLC
[31] = test system: HCC-2998 colon
[32] = test system: SK-OV-3 ovarian
[33] = test system: NCI-H460 lung
[34] = test system: SN12C renal
[35] = test system: IGROV1 ovarian
[36] = test system: M14 melanoma
[37] = test system: ACHN renal
[38] = test system: NCI-H23 lung
[39] = test system: SF-539 CNS
[40] = test system: HOP-62 NSCLC
[41] = test system: PC-3 prostate
[42] = test system: UACC-257 melanoma
[43] = test system: MDA-MB-435
[44] = test system: HL-60(TB) leukemia
[45] = test system: SW-620 colon
[46] = test system: NCI/ADR-RES ovarian
[47] = test system: OVCAR-4 ovarian
[48] = test system: RXF 393 renal
[49] = test system: HT29 colon
[50] = test system: OVCAR-3 ovarian
[51] = test system: DU-145 prostate
[52] = test system: MALME-3M melanoma
[53] = test system: MOLT-4 leukemia
[54] = test system: BT-549 breast
[55] = test system: OVCAR-8 ovarian
[56] = test system: LOX IMVI melanoma

In the case of CCN=C1C=CC(=C(c2ccc(N)cc2)c2ccc(N(CC)CC)c(C)c2)C=C1, the GI50 [1] is reported as 0.124 µM, the TGI [1] is reported as 1.59 µM and the GI50 [2] is reported as 0.394 µM. The TGI [2] was 1.96 µM, the GI50 [3] was 0.407 µM and the TGI [3] was 2.09 µM. The GI50 [4] was 0.266 µM, the TGI [4] was 11.1 µM and the GI50 [5] was 0.313 µM. It also gave a TGI [5] of 1.24 µM, a GI50 [6] of 0.317 µM and a TGI [6] of 2.07 µM. It also gave a GI50 [7] of 0.396 µM, a TGI [7] of 10.7 µM and a GI50 [8] of 0.219 µM. For the same compound, the TGI [8] was 0.654 µM, the GI50 [9] was 2.03 µM and the TGI [9] was 10.3 µM. The GI50 [10] was 0.278 µM, the TGI [10] was 5.1 µM and the GI50 [11] was 0.185 µM. For the same compound, the TGI [11] was 0.4 µM, the GI50 [12] was 0.296 µM and the TGI [12] was 1.09 µM. It also gave a GI50 [13] of 0.917 µM, a TGI [13] of 4.77 µM and a GI50 [14] of 0.303 µM. The TGI [14] was 0.943 µM, the GI50 [15] was 0.149 µM and the TGI [15] was 0.882 µM. The GI50 [16] was 0.204 µM, the TGI [16] was 0.65 µM and the GI50 [17] was 0.239 µM. It also gave a TGI [17] of 1.11 µM, a GI50 [18] of 1.92 µM and a TGI [18] of 8.15 µM. The GI50 [19] was 0.248 µM, the TGI [19] was 0.866 µM and the GI50 [20] was 0.259 µM. For the same compound, the TGI [20] was 1.72 µM, the GI50 [21] was 0.222 µM and the TGI [21] was 1.34 µM. It also gave a GI50 [22] of 0.225 µM, a TGI [22] of 1.62 µM and a GI50 [23] of 0.182 µM. The TGI [23] was 0.543 µM, the GI50 [24] was 0.31 µM and the TGI [24] was 1.62 µM. The GI50 [25] was 0.344 µM, the TGI [25] was 1.84 µM and the GI50 [26] was 0.24 µM. For the same compound, the TGI [26] was 0.931 µM, the GI50 [27] was 0.208 µM and the TGI [27] was 0.44 µM. The GI50 [28] was 0.223 µM, the TGI [28] was 0.745 µM and the GI50 [29] was 0.306 µM. The TGI [29] was 5.35 µM, the GI50 [30] was 0.337 µM and the TGI [30] was 12.9 µM. It also gave a GI50 [31] of 0.48 µM, a TGI [31] of 1.65 µM and a GI50 [32] of 0.255 µM. For the same compound, the TGI [32] was 0.703 µM, the GI50 [33] was 0.287 µM and the TGI [33] was 1.18 µM. It also gave a GI50 [34] of 0.201 µM, a TGI [34] of 1.15 µM and a GI50 [35] of 0.537 µM. The TGI [35] was 4.01 µM, the GI50 [36] was 0.349 µM and the TGI [36] was 1.77 µM. It also gave a GI50 [37] of 0.422 µM, a TGI [37] of 2.66 µM and a GI50 [38] of 0.318 µM. The TGI [38] was 1.3 µM, the GI50 [39] was 0.34 µM and the TGI [39] was 1.36 µM. For the same compound, the GI50 [40] was 0.316 µM, the TGI [40] was 1.73 µM and the GI50 [41] was 0.205 µM. For the same compound, the TGI [41] was 4.33 µM, the GI50 [42] was 0.324 µM and the TGI [42] was 1.69 µM. It also gave a GI50 [43] of 0.286 µM, a TGI [43] of 0.884 µM and a GI50 [44] of 0.304 µM. For the same compound, the TGI [44] was 0.841 µM, the GI50 [45] was 0.345 µM and the TGI [45] was 1.62 µM. For the same compound, the GI50 [46] was 2.74 µM, the TGI [46] was > 100 µM and the GI50 [47] was 0.298 µM. It also gave a TGI [47] of 1.66 µM, a GI50 [48] of 0.4 µM and a TGI [48] of 1.86 µM. For the same compound, the GI50 [49] was 0.271 µM, the TGI [49] was 1.2 µM and the GI50 [50] was 0.368 µM. The TGI [50] was 1.26 µM, the GI50 [51] was 0.43 µM and the TGI [51] was 2.28 µM. The GI50 [52] was 0.329 µM, the TGI [52] was 1.23 µM and the GI50 [53] was 0.394 µM. It also gave a TGI [53] of 5.12 µM.

Work on CC(=O)OC1C=CC(OC(C)=O)C2C1[C@H]1C3C=CC=CC3[C@@H]2S1=O (some centres undefined) yielded a GI50 [54] of 59.8 µg/mL (≈ 172 µM), a GI50 [26] of 53.7 µg/mL and a GI50 [31] of 94.2 µg/mL. For the same compound, the GI50 [43] was 40.2 µg/mL.

For COc1cc2c(c(OC)c1OC)-c1ncc3cc(OC)c(OC)c(OC)c3c1C2, the GI50 [1] was 33 µM, the TGI [1] was > 100 µM and the GI50 [2] was 25.4 µM. The TGI [2] was 78.1 µM, the GI50 [4] was 23.1 µM and the TGI [4] was 66.7 µM. The GI50 [6] was 22.5 µM, the TGI [6] was > 100 µM and the GI50 [7] was 23.3 µM. The TGI [7] was 80.6 µM, the GI50 [8] was 21.3 µM and the TGI [8] was 70.8 µM. The GI50 [9] was 20.2 µM, the TGI [9] was > 100 µM and the GI50 [10] was 29.7 µM. For the same compound, the TGI [10] was 65.6 µM, the GI50 [11] was 25.8 µM and the TGI [11] was 50.3 µM. It also gave a GI50 [12] of 17.8 µM, a TGI [12] of 63 µM and a GI50 [13] of 23.4 µM. For the same compound, the TGI [13] was 83.5 µM, the GI50 [14] was 22.9 µM and the TGI [14] was 56.8 µM. For the same compound, the GI50 [15] was > 100 µM, the TGI [15] was > 100 µM and the GI50 [16] was 54.5 µM. For the same compound, the TGI [16] was > 100 µM, the GI50 [55] was 6.09 µM and the TGI [55] was 34.7 µM. For the same compound, the GI50 [17] was 33.5 µM, the TGI [17] was > 100 µM and the GI50 [18] was 22.5 µM. The TGI [18] was 74.3 µM, the GI50 [19] was 17.4 µM and the TGI [19] was 34 µM. For the same compound, the GI50 [20] was 15.3 µM, the TGI [20] was 50.8 µM and the GI50 [21] was 50.4 µM. The TGI [21] was > 100 µM, the GI50 [22] was 28.9 µM and the TGI [22] was 94.2 µM. For the same compound, the GI50 [23] was 52.6 µM, the TGI [23] was > 100 µM and the GI50 [24] was 16.1 µM. For the same compound, the TGI [24] was 43.2 µM, the GI50 [25] was 35.9 µM and the TGI [25] was > 100 µM. For the same compound, the GI50 [27] was 15.5 µM, the TGI [27] was 29.5 µM and the GI50 [28] was 18.7 µM. For the same compound, the TGI [28] was 42.4 µM, the GI50 [29] was > 100 µM and the TGI [29] was > 100 µM. The GI50 [30] was 20.3 µM, the TGI [30] was > 100 µM and the GI50 [31] was 16.4 µM. The TGI [31] was 30.7 µM, the GI50 [32] was 47.5 µM and the TGI [32] was > 100 µM. The GI50 [33] was 30 µM, the TGI [33] was 78.2 µM and the GI50 [34] was 17.6 µM. It also gave a TGI [34] of 73.7 µM, a GI50 [35] of 25.2 µM and a TGI [35] of 63.2 µM. The GI50 [36] was 50.7 µM, the TGI [36] was > 100 µM and the GI50 [56] was 15.9 µM. The TGI [56] was 29.9 µM, the GI50 [37] was 24 µM and the TGI [37] was 78.7 µM. It also gave a GI50 [40] of 35.4 µM, a TGI [40] of 66.5 µM and a GI50 [41] of 44.2 µM. The TGI [41] was > 100 µM, the GI50 [42] was 12.1 µM and the TGI [42] was 27.2 µM. The GI50 [43] was 20.8 µM, the TGI [43] was 51 µM and the GI50 [44] was 1.92 µM. It also gave a TGI [44] of 46 µM, a GI50 [45] of 32.4 µM and a TGI [45] of 98.7 µM. It also gave a GI50 [46] of 12.1 µM, a TGI [46] of 51.2 µM and a GI50 [47] of 44.5 µM. The TGI [47] was > 100 µM, the GI50 [48] was 11.2 µM and the TGI [48] was 33.1 µM. The GI50 [50] was 19.1 µM, the TGI [50] was 46.3 µM and the GI50 [51] was 26.6 µM. The TGI [51] was > 100 µM.
